Three compounds from publication PMC9506480, “Synthesis and Evaluation of Antiproliferative Activity, Topoisomerase IIα Inhibition, DNA Binding and Non-Clinical Toxicity of New Acridine–Thiosemicarbazone Derivatives” (Pharmaceuticals, 2022) can be followed below.

The subject of one assay is K562-Lucena 1. Description: MTT cytotoxicity assay on resistant leukemic cells, K562-Lucena 1. The assay is classed as cell-based, human. To be noted: for IC50: Homo sapiens, K562-Lucena 1, MTT, 72 h, multidrug-resistant. On the procedure:
K562 (human erythroleukemic) and its multidrug-resistant counterpart, K562-Lucena 1, were obtained from the Tumor Immunology Laboratory (Federal University of Rio de Janeiro) (Rumjanek et al., 2001) and were cultured as recommended by Daflon-Yunes et al., 2013 [93, 106, 107].
CL-07, DL-01 and DL-08 compounds were evaluated for cell viability on K562 and K562-Lucena 1 cells using the colorimetric tetrazolium method (Mosmann, 1983). Cells were plated in 96-well plates. Compounds were dissolved in 1% (v/v) DMSO and RPMI-1640 medium (Sigma-Aldrich) in five serial concentrations from 1 to 50 µg/mL and were later added to each well and incubated for 72 h at 37 °C in a 5% CO2 humidified environment. As a positive control, 1 µM staurosporine was used. Then, the cells were treated with 20 µL of 5 mg/mL 3-(4,5-dimethylthiazol-2yl)-2,5-diphenyltetrazolium bromide solution (MTT solution in phosphate buffer solution) for 3 h. At the end of treatment, absorbances at 562 nm were measured using an iMark™ Microplate Absorbance Reader (iMark™, Hercules, CA, USA). Half-inhibitory concentration (IC50) was obtained by nonlinear regression with 95% confidence intervals (CI 95%) using GraphPad Prism software (Intuitive Software for Science; San Diego, CA, USA).
In general terms: Tetrazolium assays rely on reduction of a dye to a coloured formazan, in cell work by metabolically active cells.

The subject of assay [1] is HCT116 (human colon carcinoma). Briefly: Alamar blue cytotoxicity assay, HCT116. To be noted: HCT-116, 72 h incubation. The assay is classed as cell-based. Here is the method: (§1) The in vitro cytotoxic activity of the compounds (Table 1) was evaluated against cancer cell lines HCT116 (human colon carcinoma), HepG2 (human hepatocellular carcinoma), B16F10 (murine melanoma carcinoma) and non-cancerous cell line MRC-5 (human lung fibroblast) using the Alamar blue assay after 72 h of incubation; doxorubicin (DOX) was used as a positive control. The unsubstituted derivatives on the acridine cores were encoded as CL, and the disubstituted derivatives as DL.
(§2) The human cancer cell lines HCT116 (colon carcinoma) and HepG2 (hepatocellular carcinoma), the mouse cancer cell line B16-F10 (melanoma), and the non-cancerous human cell line MRC-5 (lung fibroblast) were obtained from the American Type Culture Collection (ATCC, Manassas, VA, USA) and cultured according to the ATCC animal cell culture guide. All cell lines tested negative for mycoplasma using a mycoplasma stain kit.
(§3) Cell viability was measured using the Alamar blue assay, as previously described. Cells were seeded in 96-well plates for all experiments. The compounds were dissolved in dimethyl sulfoxide (DMSO, Sigma-Aldrich) and added to each well in eight serial concentrations ranging from 0.19 to 25 μg/mL. As a positive control, doxorubicin was used. After 72 h of treatment, 20 μL of resazurin (0.312 mg/mL) was added to each well. A SpectraMax 190 Micro-plate Reader was used to measure absorbances at 570 and 595 nm (Molecular Devices, Sunnyvale, CA, USA). Nonlinear regression with 95% confidence intervals (CI 95%) was used to calculate the inhibitory concentration of 50% (IC50) using GraphPad Prism software (Intuitive Software for Science; San Diego, CA, USA).

Assay [2] deals with HepG2 (human hepatocellular carcinoma). Description: Alamar blue cytotoxicity assay, HepG2. The conditions noted are these: 72 h incubation. The assay is classed as cell-based. Here is the method:
as §1, §2, §3

As usually defined, the IC50 is the concentration that gives 50% inhibition. As to `Oc1ccc(/C=N/NC(=S)Nc2c3ccccc3nc3ccccc23)cc1` [CL-07, (E)-N-(acridin-9-yl)-2-(4-hydroxybenzylidene)hydrazine-1-carbothioamide], the IC50 is 43.4 µM with K562-Lucena 1, 39.7 µM in assay [1] and 50.7 µM in assay [2].
Regarding `COc1ccc2nc3cc(Cl)ccc3c(NC(=S)N/N=C/c3ccccc3)c2c1` [DL-01, (E)-2-benzylidene-N-(6-chloro-2-methoxyacridin-9-yl)hydrazine-1-carbothioamide], the IC50 with K562-Lucena 1 was 16.5 µM; in assay [1] it was above 60 µM; in assay [2] it was 21.9 µM. Further, in the assay on K562-Lucena 1 (more selective than MRC-5), the “selectivity K562-Lucena 1 versus MRC-5” value worked out at 2 times.
On to `COc1ccc2nc3cc(Cl)ccc3c(NC(=S)N/N=C/c3cccc(O)c3)c2c1` [DL-08, (E)-N-(6-chloro-2-methoxyacridin-9-yl)-2-(3-hydroxybenzylidene)hydrazine-1-carbothioamide], for which the figures for the IC50 (with K562-Lucena 1; in assay [1]; in assay [2]) were 17.1 µM, 24.2 µM and 21.3 µM, respectively.
